Measurements reported in ChEMBL document CHEMBL1201862, “PubChem BioAssay data set” (2004).
Active and inactive are the calls of the source.

Columns and labels:
[1] = A cytotoxicity screen of small molecule inhibitors of the PhoP region in Salmonella typhi identified in the primary screen. [Related pubchem assays: 1850, 1864, 1985 ]; assay type: functional
[2] = target: Peroxisome proliferator-activated receptor gamma/Nuclear receptor corepressor 2 (Homo sapiens, UniProt P37231+Q9Y618); experiment: Counterscreen for NR2E3 inverse agonists: TR-FRET-based biochemical high throughput dose response assay to identify inverse agonists of the interaction between peroxisome proliferator-activated receptor gamma (PPARg) and nuclear receptor co-repressor 2 (NCOR2).; assay type: functional
[3] = target: Photoreceptor-specific nuclear receptor (Homo sapiens, UniProt Q9Y5X4); experiment: ligands suppressing NR2E3 nuclear receptor activity – biochemical, TR-FRET, dose response (AID 463256); assay type: functional
[4] = Trypanosoma cruzi growth suppression in host cells – NIH3T3 host cells, beta-gal luminescence, confirmation (AID 2044); assay type: functional, cell-based;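 note: intracellular parasites grown in NIH/3T3 mouse fibroblasts as host cells; luminescent beta-galactosidase reporter signal from transgenic T. cruzi replicating inside host cells; inhibitors lower the luminescence signal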
[5] = NIH3T3 cell viability loss – ATP luminescence, mouse fibroblasts, counter-screen, dose response (AID 2010); assay type: functional, cell-based;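 note: cells exposed to compound for about 90 hours before reading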
[6] = target: Induced myeloid leukemia cell differentiation protein Mcl-1 (Homo sapiens, UniProt Q07820); assay type: functional
[7] = target: Cytochrome P450 2C19 (Homo sapiens, UniProt P33261); experiment: Cytochrome panel assay with activity outcomes. Panel member name: p450-cyp2c19 Compounds with AC50 equal or less than 10 uM are considered active; assay type: functional; settings: read-out: AC50
[8] = target: Trypsin (Sus scrofa, UniProt P00761); experiment: trypsin protease activity blockade – biochemical, quenched peptide fluorescence, cherry-pick, selectivity assay for Rce1 protease inhibitor project, dose response (AID 488789)
[9] = target: FAD-linked sulfhydryl oxidase ALR (Homo sapiens, UniProt P55789); experiment: ALR-catalysed DTT oxidation blockers – biochemical, H2O2 detection, luminescence, cherry-pick, dose response (AID 493248)
[10] = target: Melanocortin receptor 4 (Homo sapiens, UniProt P32245); experiment: inhibitors of MC4R cAMP signaling – cell-based, TR-FRET, biased antagonists, dose response (AID 602298); assay type: functional;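 note: antagonist potency against agonist-stimulated cAMP production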
[11] = cAMP pathway inhibition in counterscreen cell line – TR-FRET cAMP detection, counter-screen for MC4R biased antagonist project, dose response (AID 602305); assay type: functional, cell-based;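 note: U2OS cells stimulated with forskolin near its EC80 as the cAMP inducer; potency is for inhibition of forskolin-stimulated cAMP signaling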
[12] = cells; assay type: functional, cell-based
[13] = cells; assay type: functional, cell-based; remark: listed apart in the source
[14] = Luminescence Cell-Based Dose Response to Identify Activators of 5'UTR Stem-Loop Driven Prion Protein mRNA Translation in H4-C Neuroglioblastoma Cells. [Related pubchem assays: 1829 (Project Summary), 1814 (Primary HTS)]; assay type: functional
[15] = Luminescence Cell-Based Dose Response HTS to Identify Activators of Luciferase Translation or Activity in H4 […] Cells. [Related pubchem assays: 1829 (Project Summary), 1814 (Primary HTS)]; assay type: functional
[16] = test system: H4; experiment: Luminescence Cell-Based Dose Response HTS to Identify Activators of 5'UTR Stem-Loop Driven Prion Protein mRNA Translation in H4 Neuroglioblastoma Cells. [Related pubchem assays: 1829 (Project Summary), 1814 (Primary HTS)]; assay type: functional; settings: Homo sapiens
[17] = Luminescence Cell-Based Dose Response to Identify Activators of Luciferase Translation or Activity in H4-C Neuroglioblastoma Cells. [Related pubchem assays: 1829 (Project Summary), 1814 (Primary HTS)]; assay type: functional
[18] = Luminescence Cell-Based Dose Confirmation to Identify Activators of 5'UTR Stem-Loop Driven Alpha-Synuclein mRNA Translation in H4 Neuroglioblastoma Cells. [Related pubchem assays: 1829 (Project Summary), 1814 (Primary HTS)]; assay type: functional
[19] = test system: HeLa; experiment: viability loss in HeLa cells – cell-based, ATP luminescence, cherry-pick samples, cytotoxicity control, dose response (AID 687004); assay type: functional; settings: Homo sapiens
[20] = target: T1, Microphthalmia-associated transcription factor (Homo sapiens, UniProt O75030); experiment: reducers of TRPM1 reporter luminescence, concentration series – cell-based, SK-MEL-5, cherry-picked, set 3, MITF inhibitor project, dose response (AID 493073); assay type: functional;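 note: SK-MEL-5 melanoma cells with luciferase driven by the MITF target TRPM1 promoter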
T1 sequence (O75030 whole entry): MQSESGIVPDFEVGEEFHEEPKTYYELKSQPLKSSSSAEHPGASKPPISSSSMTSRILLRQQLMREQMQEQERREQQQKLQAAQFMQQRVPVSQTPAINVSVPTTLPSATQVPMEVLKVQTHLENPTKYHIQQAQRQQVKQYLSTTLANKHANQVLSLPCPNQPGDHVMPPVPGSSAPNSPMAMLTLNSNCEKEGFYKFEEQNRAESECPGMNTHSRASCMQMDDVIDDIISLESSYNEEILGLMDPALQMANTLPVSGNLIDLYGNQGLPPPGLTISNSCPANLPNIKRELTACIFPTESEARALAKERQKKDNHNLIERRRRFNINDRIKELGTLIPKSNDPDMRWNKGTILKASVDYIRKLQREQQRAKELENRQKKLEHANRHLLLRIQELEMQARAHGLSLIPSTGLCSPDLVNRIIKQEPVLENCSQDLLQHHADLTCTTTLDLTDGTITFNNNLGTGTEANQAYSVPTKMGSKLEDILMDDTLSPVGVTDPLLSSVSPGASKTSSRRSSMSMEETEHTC

[21] = target: T2, Apoptotic protease-activating factor 1 (Homo sapiens, UniProt O14727); assay type: functional
T2 sequence (O14727 whole entry): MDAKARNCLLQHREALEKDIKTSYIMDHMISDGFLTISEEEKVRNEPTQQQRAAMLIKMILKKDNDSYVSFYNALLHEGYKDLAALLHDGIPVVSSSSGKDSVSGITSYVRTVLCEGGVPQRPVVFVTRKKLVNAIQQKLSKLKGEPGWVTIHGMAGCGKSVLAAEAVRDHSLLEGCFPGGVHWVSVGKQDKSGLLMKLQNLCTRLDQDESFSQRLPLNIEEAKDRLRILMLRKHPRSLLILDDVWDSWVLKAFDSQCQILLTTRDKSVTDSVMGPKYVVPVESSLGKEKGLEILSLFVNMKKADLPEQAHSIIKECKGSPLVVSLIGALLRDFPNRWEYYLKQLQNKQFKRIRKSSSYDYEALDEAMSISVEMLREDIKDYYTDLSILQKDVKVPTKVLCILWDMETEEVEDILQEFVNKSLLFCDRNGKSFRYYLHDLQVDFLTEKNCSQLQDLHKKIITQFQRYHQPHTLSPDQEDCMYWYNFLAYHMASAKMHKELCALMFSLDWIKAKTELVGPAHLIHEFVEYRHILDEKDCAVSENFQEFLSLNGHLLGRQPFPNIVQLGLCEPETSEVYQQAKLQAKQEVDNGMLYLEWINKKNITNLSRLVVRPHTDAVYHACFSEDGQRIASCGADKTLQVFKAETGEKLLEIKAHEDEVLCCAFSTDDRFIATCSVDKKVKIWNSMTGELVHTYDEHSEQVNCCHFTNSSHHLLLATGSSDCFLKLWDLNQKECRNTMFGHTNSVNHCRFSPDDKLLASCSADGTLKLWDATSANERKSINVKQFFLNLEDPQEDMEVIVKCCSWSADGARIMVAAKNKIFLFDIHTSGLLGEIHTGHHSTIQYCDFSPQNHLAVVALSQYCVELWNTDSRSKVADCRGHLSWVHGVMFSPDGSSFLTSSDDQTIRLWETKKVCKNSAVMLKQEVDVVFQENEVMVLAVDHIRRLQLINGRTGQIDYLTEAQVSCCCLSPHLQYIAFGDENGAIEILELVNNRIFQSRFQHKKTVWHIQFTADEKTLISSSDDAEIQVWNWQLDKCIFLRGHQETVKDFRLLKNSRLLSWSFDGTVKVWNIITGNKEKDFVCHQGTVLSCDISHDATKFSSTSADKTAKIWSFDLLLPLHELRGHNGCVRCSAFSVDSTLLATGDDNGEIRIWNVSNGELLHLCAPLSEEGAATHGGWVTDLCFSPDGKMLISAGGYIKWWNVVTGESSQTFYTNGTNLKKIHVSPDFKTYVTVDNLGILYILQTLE

[22] = viability loss in THP-1 monocytes – THP-1 cells, cytotoxicity control for Vif-APOBEC3G degradation inhibitor project, dose response (AID 1117359); assay type: functional; settings: THP-1
[23] = target: Beta-galactosidase (Escherichia coli, UniProt Q8VNN2); experiment: detection-enzyme interference by beta-gal modulators – biochemical, E. coli enzyme, set 3, artefact control for CCR6 antagonist project, dose response (AID 504712); assay type: functional
[24] = target: Genome polyprotein (dengue virus type 2, UniProt P29990); experiment: flavivirus cap methylation enzyme inhibition – biochemical, confirmation dose response, primary screen (AID 588689); assay type: functional

Melanocortin receptor 4, sequence (P32245 whole entry): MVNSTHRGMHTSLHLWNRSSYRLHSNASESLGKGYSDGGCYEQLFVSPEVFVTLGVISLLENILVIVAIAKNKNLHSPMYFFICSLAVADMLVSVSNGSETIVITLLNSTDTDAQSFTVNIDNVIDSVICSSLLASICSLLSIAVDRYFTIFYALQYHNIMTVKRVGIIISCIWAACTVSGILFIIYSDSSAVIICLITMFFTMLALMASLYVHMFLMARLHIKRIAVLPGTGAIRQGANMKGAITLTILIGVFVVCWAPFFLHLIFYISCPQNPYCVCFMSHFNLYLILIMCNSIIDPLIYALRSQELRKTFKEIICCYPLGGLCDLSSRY
Peroxisome proliferator-activated receptor gamma/Nuclear receptor corepressor 2, sequence (P37231 whole entry): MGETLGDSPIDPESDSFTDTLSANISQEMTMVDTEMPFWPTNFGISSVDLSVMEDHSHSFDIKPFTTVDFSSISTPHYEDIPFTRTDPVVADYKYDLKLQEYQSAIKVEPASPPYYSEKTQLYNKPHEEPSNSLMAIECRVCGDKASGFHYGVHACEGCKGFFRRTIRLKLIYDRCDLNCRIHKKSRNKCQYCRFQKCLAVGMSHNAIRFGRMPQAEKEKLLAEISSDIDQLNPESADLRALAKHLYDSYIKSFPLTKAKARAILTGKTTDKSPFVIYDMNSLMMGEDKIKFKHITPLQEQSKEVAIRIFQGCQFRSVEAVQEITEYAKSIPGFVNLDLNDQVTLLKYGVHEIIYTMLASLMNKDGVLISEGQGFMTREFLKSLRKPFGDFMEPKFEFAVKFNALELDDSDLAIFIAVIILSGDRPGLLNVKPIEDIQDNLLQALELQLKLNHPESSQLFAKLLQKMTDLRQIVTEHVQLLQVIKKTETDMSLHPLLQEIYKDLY
Peroxisome proliferator-activated receptor gamma/Nuclear receptor corepressor 2, sequence (Q9Y618 whole entry): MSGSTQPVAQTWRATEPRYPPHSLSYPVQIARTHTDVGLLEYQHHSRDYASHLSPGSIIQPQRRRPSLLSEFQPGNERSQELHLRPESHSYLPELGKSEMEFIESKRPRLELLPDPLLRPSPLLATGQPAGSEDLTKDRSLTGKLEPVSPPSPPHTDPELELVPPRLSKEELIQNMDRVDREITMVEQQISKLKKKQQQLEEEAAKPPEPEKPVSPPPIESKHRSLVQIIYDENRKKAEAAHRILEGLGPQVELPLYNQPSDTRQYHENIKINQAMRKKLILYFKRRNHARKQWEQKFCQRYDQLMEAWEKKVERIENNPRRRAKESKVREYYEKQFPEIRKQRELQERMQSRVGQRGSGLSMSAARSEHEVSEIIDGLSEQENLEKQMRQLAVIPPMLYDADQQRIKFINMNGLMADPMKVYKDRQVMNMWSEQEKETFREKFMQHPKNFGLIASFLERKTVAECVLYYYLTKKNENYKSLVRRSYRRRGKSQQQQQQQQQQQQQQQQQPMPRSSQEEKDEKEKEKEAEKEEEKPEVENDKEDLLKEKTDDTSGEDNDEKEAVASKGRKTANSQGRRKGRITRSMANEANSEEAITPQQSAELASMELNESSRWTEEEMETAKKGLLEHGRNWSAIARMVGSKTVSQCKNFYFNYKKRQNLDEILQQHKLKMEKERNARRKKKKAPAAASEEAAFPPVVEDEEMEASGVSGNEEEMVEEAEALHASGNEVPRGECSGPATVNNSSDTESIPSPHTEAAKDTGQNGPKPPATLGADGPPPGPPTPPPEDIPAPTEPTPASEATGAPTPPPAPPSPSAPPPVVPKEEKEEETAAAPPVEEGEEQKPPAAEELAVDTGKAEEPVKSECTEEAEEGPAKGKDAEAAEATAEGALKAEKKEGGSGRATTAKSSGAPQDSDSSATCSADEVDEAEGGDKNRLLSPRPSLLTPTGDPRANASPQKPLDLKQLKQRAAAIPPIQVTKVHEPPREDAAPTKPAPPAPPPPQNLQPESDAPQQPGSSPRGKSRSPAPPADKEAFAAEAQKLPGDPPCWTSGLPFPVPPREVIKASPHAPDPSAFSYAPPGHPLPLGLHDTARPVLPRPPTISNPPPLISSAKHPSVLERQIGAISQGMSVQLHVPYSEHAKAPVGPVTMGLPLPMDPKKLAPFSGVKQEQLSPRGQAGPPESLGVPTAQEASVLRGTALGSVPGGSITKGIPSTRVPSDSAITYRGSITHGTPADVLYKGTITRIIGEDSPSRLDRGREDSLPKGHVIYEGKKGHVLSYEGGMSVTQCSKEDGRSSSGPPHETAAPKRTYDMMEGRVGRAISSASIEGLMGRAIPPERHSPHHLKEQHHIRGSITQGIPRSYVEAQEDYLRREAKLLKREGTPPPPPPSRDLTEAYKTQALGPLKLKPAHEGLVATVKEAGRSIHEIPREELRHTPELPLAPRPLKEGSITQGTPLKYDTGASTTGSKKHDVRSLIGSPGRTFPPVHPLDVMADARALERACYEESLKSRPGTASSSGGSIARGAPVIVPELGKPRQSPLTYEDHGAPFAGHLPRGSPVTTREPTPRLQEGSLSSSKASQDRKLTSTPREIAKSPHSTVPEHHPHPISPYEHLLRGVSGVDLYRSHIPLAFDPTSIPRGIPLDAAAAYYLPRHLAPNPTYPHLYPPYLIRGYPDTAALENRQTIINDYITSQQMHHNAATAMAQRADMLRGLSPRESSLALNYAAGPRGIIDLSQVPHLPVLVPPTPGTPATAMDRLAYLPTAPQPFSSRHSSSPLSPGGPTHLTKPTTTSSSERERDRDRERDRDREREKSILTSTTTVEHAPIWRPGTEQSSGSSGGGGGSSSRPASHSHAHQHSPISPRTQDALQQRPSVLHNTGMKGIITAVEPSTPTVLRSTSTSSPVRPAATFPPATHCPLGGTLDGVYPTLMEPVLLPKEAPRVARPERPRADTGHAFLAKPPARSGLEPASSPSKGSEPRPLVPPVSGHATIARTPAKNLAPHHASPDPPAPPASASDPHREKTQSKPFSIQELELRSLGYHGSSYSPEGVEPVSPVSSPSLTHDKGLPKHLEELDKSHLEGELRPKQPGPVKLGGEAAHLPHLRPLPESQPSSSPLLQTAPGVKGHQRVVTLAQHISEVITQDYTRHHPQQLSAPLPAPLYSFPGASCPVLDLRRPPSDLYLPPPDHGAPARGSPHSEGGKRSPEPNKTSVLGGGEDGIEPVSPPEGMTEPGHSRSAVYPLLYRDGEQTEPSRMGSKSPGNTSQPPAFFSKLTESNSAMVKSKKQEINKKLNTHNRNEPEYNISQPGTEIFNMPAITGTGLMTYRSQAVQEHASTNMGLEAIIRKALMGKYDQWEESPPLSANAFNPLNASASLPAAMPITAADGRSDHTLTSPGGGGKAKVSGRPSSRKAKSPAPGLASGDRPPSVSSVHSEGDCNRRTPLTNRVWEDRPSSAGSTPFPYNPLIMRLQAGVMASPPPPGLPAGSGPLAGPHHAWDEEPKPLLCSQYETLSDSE
Photoreceptor-specific nuclear receptor, sequence (Q9Y5X4 whole entry): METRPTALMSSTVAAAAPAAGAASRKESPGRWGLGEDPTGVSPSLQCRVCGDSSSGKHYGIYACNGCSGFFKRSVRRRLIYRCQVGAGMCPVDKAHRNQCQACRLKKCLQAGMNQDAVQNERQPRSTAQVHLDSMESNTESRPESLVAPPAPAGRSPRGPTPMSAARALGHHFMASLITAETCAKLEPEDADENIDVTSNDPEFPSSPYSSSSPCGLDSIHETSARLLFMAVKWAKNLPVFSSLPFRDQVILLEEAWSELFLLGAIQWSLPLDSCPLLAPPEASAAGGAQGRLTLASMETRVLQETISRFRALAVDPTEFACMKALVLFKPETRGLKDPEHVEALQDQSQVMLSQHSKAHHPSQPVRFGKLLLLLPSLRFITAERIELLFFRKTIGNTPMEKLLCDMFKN
Beta-galactosidase, sequence (Q8VNN2 whole entry): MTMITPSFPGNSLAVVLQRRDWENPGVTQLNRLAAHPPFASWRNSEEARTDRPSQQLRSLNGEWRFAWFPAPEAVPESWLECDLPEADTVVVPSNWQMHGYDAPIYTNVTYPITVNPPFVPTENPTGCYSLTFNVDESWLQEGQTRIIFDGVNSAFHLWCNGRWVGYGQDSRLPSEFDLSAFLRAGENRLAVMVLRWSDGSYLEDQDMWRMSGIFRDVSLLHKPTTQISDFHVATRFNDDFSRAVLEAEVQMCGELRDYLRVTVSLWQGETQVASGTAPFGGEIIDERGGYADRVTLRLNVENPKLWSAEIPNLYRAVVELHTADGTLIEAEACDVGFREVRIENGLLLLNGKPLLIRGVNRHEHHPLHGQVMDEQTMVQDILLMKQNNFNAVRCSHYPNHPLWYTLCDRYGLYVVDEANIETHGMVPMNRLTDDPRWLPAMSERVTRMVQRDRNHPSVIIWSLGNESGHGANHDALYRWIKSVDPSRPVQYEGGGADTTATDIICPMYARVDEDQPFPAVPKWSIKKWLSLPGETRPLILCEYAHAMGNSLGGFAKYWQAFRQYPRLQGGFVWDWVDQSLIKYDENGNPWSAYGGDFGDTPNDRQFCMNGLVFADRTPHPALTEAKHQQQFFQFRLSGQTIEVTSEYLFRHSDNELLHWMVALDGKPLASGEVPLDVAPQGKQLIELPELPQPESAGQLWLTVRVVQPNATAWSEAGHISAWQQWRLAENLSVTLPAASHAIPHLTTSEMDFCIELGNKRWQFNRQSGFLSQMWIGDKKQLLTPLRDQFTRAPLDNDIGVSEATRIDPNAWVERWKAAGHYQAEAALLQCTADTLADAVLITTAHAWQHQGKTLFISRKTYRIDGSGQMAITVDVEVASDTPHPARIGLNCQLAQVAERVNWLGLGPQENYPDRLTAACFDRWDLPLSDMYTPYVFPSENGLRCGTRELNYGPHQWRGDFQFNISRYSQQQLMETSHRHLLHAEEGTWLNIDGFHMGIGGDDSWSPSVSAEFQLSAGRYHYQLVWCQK
FAD-linked sulfhydryl oxidase ALR, sequence (P55789 whole entry): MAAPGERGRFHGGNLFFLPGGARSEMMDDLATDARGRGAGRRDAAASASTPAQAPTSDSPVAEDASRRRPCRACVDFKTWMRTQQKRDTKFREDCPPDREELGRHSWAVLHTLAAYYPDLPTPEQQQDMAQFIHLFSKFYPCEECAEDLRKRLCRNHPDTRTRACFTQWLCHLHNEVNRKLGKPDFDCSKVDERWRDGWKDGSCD

CN(C)C1C(=O)C(C(N)=O)=C(O)C2(O)C(O)=C3C(=O)c4c(O)cccc4C(C)(O)C3CC12 (centres undefined)
EC50 [1]: > 50 µM (active)

O=C(Nc1ccnc(-c2cccnc2)n1)c1ccc(Cl)cc1
IC50 [2]: 5.27 µM (active) | IC50 [3]: 5.23 µM (active)

CCn1c(C)cc(/C=C2\NC(=O)N(Cc3ccc(Cl)cc3)C2=O)c1C
EC50 [4]: 0.178 µM (active) | EC50 [5]: > 30 µM (not active) | IC50 [6]: 3.37 µM (active) | AC50 [7]: 1.78 µM (inconclusive)

CCS(=O)(=O)Nc1c(C(=O)O)[nH]c2ccccc12
AC50 [8]: > 100 µM (inactive) | AC50 [9]: 0.6 µM (active)

Cc1ccccc1C(=O)c1cccn1CC(=O)NCCC1=CCCCC1
EC50 [1]: > 50 µM (active)

CSc1cccc(NC(=O)c2cc(S(=O)(=O)N3CCCCC3)c[nH]2)c1
IC50 [2]: 4.12 µM (active) | IC50 [3]: 3.45 µM (active)

CCCc1nc(SCC(=O)Nc2nc3c(s2)CCCC3)c2ccccc2n1
IC50 [10]: > 64.6 µM (inactive) | IC50 [11]: > 64.6 µM (inactive)

Cn1c(=O)c(=O)n(C)c2cc(S(=O)(=O)N3CCc4ccccc43)ccc21
EC50 [1]: > 50 µM (active)

Nc1nn2cc(-c3ccccc3)nc2c2ccccc12
EC50 [1]: > 50 µM (active)

Cc1cc2oc(C(=O)NCc3ccncc3)c(C)c2cc1C
EC50 [1]: > 50 µM (active)

CN1C(=O)C2CN(CCc3ccccc3)CNC2N(C)C1=O (centres undefined)
IC50 [12]: > 29.9 µM (inactive) | EC50 [13]: > 29.9 µM (inactive)

Cc1ccc(OCC(=O)Nc2ccc3c(c2)OCO3)c(C)c1
EC50 [14]: > 12 µM (not active) | EC50 [15]: < 0.1 µM (active) | EC50 [16]: 31.7 µM (active) | EC50 [17]: 1.1 µM (active) | EC50 [18]: 0.914 µM (active)

Cc1cc(C)c(NC(=O)C2CCCN2CCC(C)C)c(C)c1 (centres undefined)
AC50 [19]: > 52 µM (inactive)

CCOc1cnn(Cc2ccccc2)c(=O)c1SCc1ccccc1
IC50 [2]: > 39.8 µM (not active) | IC50 [3]: 15.5 µM (not active)

O=C(CSc1nccc(O)n1)N1CCc2ccccc2C1
IC50 [12]: > 29.9 µM (inactive) | EC50 [13]: > 29.9 µM (inactive)

O=C(Nc1ccc(F)c([N+](=O)[O-])c1)C1CC(=O)N(Cc2ccccc2)C1 (centres undefined)
IC50 [10]: > 64.6 µM (inactive) | IC50 [11]: > 64.6 µM (inactive)

COc1ccc2oc(C(=O)Nc3ccc(S(=O)(=O)N(C)C4CCN(C)CC4)cc3)c(C)c2c1
EC50 [4]: 0.17 µM (active) | EC50 [5]: 9.46 µM (active) | AC50 [20]: 13 µM (active)

Cc1cccc(NC(=O)CSCC(=O)N(C)Cc2ccc(Cl)c(Cl)c2)c1
IC50 [21]: > 100 µM (inactive)

CSc1nc(-c2ccc(Cl)cc2)c[nH]1
EC50 [14]: 2.01 µM (active) | EC50 [15]: 0.284 µM (active) | EC50 [16]: < 0.1 µM (active) | EC50 [17]: 0.276 µM (active) | EC50 [18]: 0.386 µM (active) | AC50 [9]: 2.02 µM (active)

COc1cc(OC)c2ccc(=O)oc2c1C(CCN1CCCC(C)C1)c1ccc2c(c1)OCO2 (centres undefined)
CC50 [22]: > 40 µM (active)

CN(C)CCCN1C(=O)C(O)=C(C(=O)c2cc3ccccc3o2)C1c1ccccn1 (centres undefined)
IC50 [10]: > 64.6 µM (inactive) | IC50 [11]: > 64.6 µM (inactive)

CN(C)c1c([N+](=O)[O-])cc(N2C(=O)C=CC2=O)cc1[N+](=O)[O-]
IC50 [23]: > 66.6 µM (inactive) | IC50 [24]: 11.1 µM (active)

C[C@@H]1CN([C@@H](C)CO)C(=O)CCCn2nncc2CO[C@@H]1CN(C)Cc1cccc(C(F)(F)F)c1
AC50 [19]: > 52 µM (inactive)

Cc1cccc(C)c1NC(=O)C(CCc1ccccc1)N1CCC(c2ccccc2)CC1 (centres undefined)
AC50 [19]: > 52 µM (inactive)

Cc1nn(-c2ccccc2)c(O)c1/C=N/N1C(=O)c2ccc3c4c(ccc(c24)C1=O)CC3
IC50 [23]: > 66.6 µM (inactive)

CC/N=c1\scc(C)n1/N=C/c1ccsc1
EC50 [14]: 0.66 µM (active) | EC50 [15]: 16.6 µM (active) | EC50 [16]: 11.1 µM (active) | EC50 [17]: 0.582 µM (active) | EC50 [18]: 1.08 µM (active)
